In US20250179013A1, “INHIBITORS OF RNA HELICASE DHX9 AND USES THEREOF” (ACCENT THERAPEUTICS, INC., priority 2022, published 2025):
Like-named read-outs stand apart in the source and are kept apart here.

Columns and labels:
[1] = target: T1, Human recombinant DHX9 protein (Homo sapiens, UniProt Q08211); test: DHX9 ATPase assay (ADP-Glo biochemical assay); settings: for DHX9 Biochemical Max Inhibition: maximum inhibition in ATPase assay, 10 μM Aurintricarboxylic acid = 100%; for IC50: read-out: DHX9 Biochemical Inflection Point
T1 construct: purchased Viva
T1 sequence (Q08211 whole entry): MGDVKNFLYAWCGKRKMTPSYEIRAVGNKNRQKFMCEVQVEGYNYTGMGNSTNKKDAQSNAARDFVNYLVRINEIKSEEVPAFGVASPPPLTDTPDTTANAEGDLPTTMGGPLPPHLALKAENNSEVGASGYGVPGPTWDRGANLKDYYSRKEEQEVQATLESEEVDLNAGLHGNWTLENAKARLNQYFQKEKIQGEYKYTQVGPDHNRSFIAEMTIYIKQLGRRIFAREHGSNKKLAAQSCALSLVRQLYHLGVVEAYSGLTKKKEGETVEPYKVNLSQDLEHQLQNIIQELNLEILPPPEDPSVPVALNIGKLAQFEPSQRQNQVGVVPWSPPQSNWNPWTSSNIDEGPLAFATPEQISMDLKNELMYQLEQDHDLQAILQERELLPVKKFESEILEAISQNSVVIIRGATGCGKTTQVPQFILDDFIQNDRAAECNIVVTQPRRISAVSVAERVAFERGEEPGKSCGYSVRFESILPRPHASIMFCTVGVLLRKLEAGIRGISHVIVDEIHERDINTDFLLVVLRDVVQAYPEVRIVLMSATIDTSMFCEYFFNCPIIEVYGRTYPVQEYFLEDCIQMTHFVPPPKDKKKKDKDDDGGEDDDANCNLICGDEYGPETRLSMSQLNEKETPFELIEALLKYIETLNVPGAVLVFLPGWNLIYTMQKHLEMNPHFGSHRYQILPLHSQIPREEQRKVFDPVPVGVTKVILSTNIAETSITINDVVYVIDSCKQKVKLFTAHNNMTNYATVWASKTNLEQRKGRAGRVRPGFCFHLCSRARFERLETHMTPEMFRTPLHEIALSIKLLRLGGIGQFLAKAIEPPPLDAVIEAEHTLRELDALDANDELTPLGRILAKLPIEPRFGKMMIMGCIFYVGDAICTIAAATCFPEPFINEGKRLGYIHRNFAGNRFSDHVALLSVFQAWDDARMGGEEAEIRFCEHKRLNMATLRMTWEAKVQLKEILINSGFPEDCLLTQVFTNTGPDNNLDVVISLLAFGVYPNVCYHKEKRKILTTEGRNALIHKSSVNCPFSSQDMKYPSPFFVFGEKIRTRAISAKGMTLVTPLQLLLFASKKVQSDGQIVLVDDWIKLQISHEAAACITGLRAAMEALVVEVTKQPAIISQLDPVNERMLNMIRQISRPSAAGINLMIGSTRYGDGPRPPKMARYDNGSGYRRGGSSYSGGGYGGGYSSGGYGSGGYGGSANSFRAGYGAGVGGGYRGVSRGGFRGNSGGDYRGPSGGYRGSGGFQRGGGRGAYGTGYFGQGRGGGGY

[2] = test system: DHX9 (circBRIP1 mRNA in HCT116 cells); test: DHX9 circBRIP1 Cellular Target Engagement SYBR Green Assay; type: cell-based; settings: 72 hours
[3] = Homo sapiens, HCT-116, circBRIP1 qPCR

Row | DHX9 Biochemical Max Inhibition [1] | IC50 [1] | EC50 [2, 3] | Structure (SMILES) | IC50 ([1]; inflection point (IP) of four-parameter fit, reported instead of IC50, ATPase, dsRNA substrate, 1 h room temperature) | EC50 ([2]; circBRIP1 qPCR)
1 | 71.2% | 467 nM | > 30000 nM | Cn1nc(C(=O)Nc2cccc(NS(C)(=O)=O)c2)cc1-c1ccc(O)cc1 [Example 79] |  | 
2 | 61.2% | 19000 nM | > 30000 nM | CS(=O)(=O)Nc1cccc(NC(=O)c2nc(-c3ccccn3)c[nH]2)c1 [Example 90] |  | 
3 | 70.4% | 188 nM | 22700 nM | CS(=O)(=O)Nc1cccc(NC(=O)c2cc(-c3ccc(F)cc3)cs2)c1 [Example 53] |  | 
4 | 70% | 24.7 nM | 4320 nM | CCS(=O)(=O)Nc1cccc(NC(=O)c2cc(-c3ccccn3)cs2)c1 [Example 97] |  | 
5 | 61.2% | 285 nM | 27400 nM | CS(=O)(=O)Nc1cccc(NC(=O)c2cnn(-c3ccccn3)c2)c1 [Example 41] |  | 
6 | 69.2% | 76.6 nM | 10900 nM | Cc1ncccc1-c1csc(C(=O)Nc2cccc(NS(C)(=O)=O)c2)c1 [Example 60] |  | 
7 | 64.4% | 494 nM | > 30000 nM | CC(C)(C)OC(=O)Nc1cccc(-c2csc(C(=O)Nc3cccc(NS(C)(=O)=O)c3)c2)c1 [Example 72] |  | 
8 | 62.5% | 1040 nM |  | CS(=O)(=O)Nc1cccc(NC(=O)c2csc(-c3ccc(F)cc3)n2)c1 [Example 24] |  | 
9 | 73.5% | 71.4 nM |  | CN(C)C(=O)c1ccc(NC(=O)c2csc(C(=O)Nc3cccc(NS(C)(=O)=O)c3)c2)cc1 [Example 114] |  | 
10 | 70.1% | 980 nM |  | COc1cccc(-c2csc(C(=O)Nc3cccc(NS(C)(=O)=O)c3)c2)c1C [Example 67] |  | 
11 | 52.7% | 686 nM |  | CS(=O)(=O)Nc1cccc(NC(=O)c2cc(C(=O)Nc3ccc(Oc4ccccc4)cc3)cs2)c1 [Example 117] |  | 
12 | 67.2% | 88.9 nM |  | CS(=O)(=O)Nc1cccc(NC(=O)c2cc(C(=O)Nc3cnc4ccccn34)cs2)c1 [Example 129] |  | 
13 | 68.9% | 40.5 nM |  | CNC(=O)c1ccc(NC(=O)c2csc(C(=O)Nc3cccc(NS(C)(=O)=O)c3)c2)cc1 [Example 139] |  | 
14 | 63.8% | 1610 nM |  | CS(=O)(=O)Nc1cccc(NC(=O)c2ccc(S(=O)(=O)Nc3ccncc3)cc2)c1 [Example 27] |  | 
15 | 66.9% | 58 nM |  | COCc1cccc(NC(=O)c2csc(C(=O)Nc3cccc(NS(C)(=O)=O)c3)c2)c1 [Example 134] |  | 
16 | 60.6% | 56900 nM |  | Cc1ccc(C)n1-c1sccc1C(=O)Nc1cccc(NS(C)(=O)=O)c1 [Example 26] |  | 
17 | 65.6% | 211 nM |  | CC(C)Oc1ccccc1NC(=O)c1csc(C(=O)Nc2cccc(NS(C)(=O)=O)c2)c1 [Example 135] |  | 
18 | 48.3% | 3940 nM |  | CS(=O)(=O)Nc1cccc(NC(=O)c2ccccc2N2CCCCC2)c1 [Example 9] |  | 
19 | 72.4% | 3850 nM |  | CS(=O)(=O)Nc1cccc(NC(=O)c2ccc(-c3nnn[nH]3)cc2)c1 [Example 21] |  | 

Row | DHX9 Biochemical Max Inhibition [1] | IC50 [1] | EC50 [2, 3] | Structure (SMILES) | IC50 ([1]; inflection point (IP) of four-parameter fit, reported instead of IC50, ATPase, dsRNA substrate, 1 h room temperature) | EC50 ([2]; circBRIP1 qPCR)
20 | 73.9% | 123 nM |  | Cc1ccccc1-c1csc(C(=O)Nc2cccc(NS(C)(=O)=O)c2)c1 [Example 46] |  | 
21 | 70.3% |  |  | COc1ccc(C)c(-c2csc(C(=O)Nc3cccc(NS(C)(=O)=O)c3)c2)c1 [Example 68] |  | 
22 | 52.5% | 2390 nM |  | CS(=O)(=O)Nc1cccc(NC(=O)c2csc(NC3CC3)n2)c1 [Example 13] |  | 
23 | 65.9% | 146 nM |  | CS(=O)(=O)Nc1cccc(NC(=O)c2cc(C(=O)NCc3n[nH]c4ccccc34)cs2)c1 [Example 144] |  | 
24 | 69.1% | 34100 nM |  | CS(=O)(=O)Nc1cccc(NC(=O)c2csc(S(=O)(=O)N3CCOCC3)c2)c1 [Example 30] |  | 
25 | 66.3% | 92.6 nM |  | CS(=O)(=O)Nc1cccc(NC(=O)c2cc(C(=O)NCc3nc4ccccc4[nH]3)cs2)c1 [Example 141] |  | 
26 | 78.1% | 589 nM |  | CS(=O)(=O)Nc1cccc(NC(=O)c2cc(-c3ccc(O)cc3)[nH]n2)c1 [Example 64] |  | 
27 | 70.4% | 5090 nM |  | CS(=O)(=O)Nc1cccc(NC(=O)c2ccc(C(=O)NC3CC3)cc2)c1 [Example 14] |  | 
28 | 71.7% | 64.9 nM |  | COc1cc(Cl)cc(NC(=O)c2csc(C(=O)Nc3cccc(NS(C)(=O)=O)c3)c2)c1 [Example 125] |  | 
29 | 66.5% | 1860 nM |  | CS(=O)(=O)Nc1cccc(NC(=O)c2cc(Cc3ccccc3)cs2)c1 [Example 71] |  | 
30 | 68.3% | 115 nM |  | CC(C)(C)NC(=O)c1ccc(NC(=O)c2csc(C(=O)Nc3cccc(NS(C)(=O)=O)c3)c2)cc1 [Example 127] |  | 
31 | 74.5% | 70.8 nM |  | CS(=O)(=O)Nc1cccc(NC(=O)c2cc(C(=O)NCc3ccc(N4CCOCC4)cc3)cs2)c1 [Example 116] |  | 
32 | 70.4% | 50.5 nM |  | CS(=O)(=O)Nc1cccc(NC(=O)c2cc(C(=O)Nc3cccc(OC(F)(F)F)c3)cs2)c1 [Example 120] |  | 
33 | 71.4% | 544 nM |  | CS(=O)(=O)Nc1cccc(NC(=O)c2nc(-c3ccccc3)cs2)c1 [Example 42] |  | 
34 | 55.1% | 3050 nM |  | CS(=O)(=O)Nc1cccc(NC(=O)c2cccc(OCc3ccccc3)c2)c1 [Example 4] |  | 
35 | 72.9% | 127 nM |  | CS(=O)(=O)Nc1cccc(NC(=O)c2cc(C(=O)NC3CCc4ccccc43)cs2)c1 (stereo not shown) [Example 136] |  | 
36 | 79.8% | 1540 nM |  | Cc1ccc(Nc2cccc(C(=O)Nc3cccc(NS(C)(=O)=O)c3)c2)nn1 [Example 10] |  | 
37 | 59.7% | 515 nM |  | Cc1cc(NC(=O)c2csc(C(=O)Nc3cccc(NS(C)(=O)=O)c3)c2)ccc1Cl [Example 113] |  | 
38 | 72.3% | 67.9 nM |  | COc1ccc(NC(=O)c2csc(C(=O)Nc3cccc(NS(C)(=O)=O)c3)c2)cn1 [Example 106] |  | 

Row | Structure (SMILES) | DHX9 Biochemical Max Inhibition [1] | IC50 [1] | EC50 [2, 3] | IC50 ([1]; inflection point (IP) of four-parameter fit, reported instead of IC50, ATPase, dsRNA substrate, 1 h room temperature) | EC50 ([2]; circBRIP1 qPCR)
39 | CS(=O)(=O)Nc1cc(C=O)cc(NC(=O)c2cc(-c3ccccc3)cs2)c1 [Example 159, N-(3-formyl-5-(methylsulfonamido)phenyl)-4-phenylthiophene-2-carboxamide] | 50.7% | 690 nM | > 10000 nM |  | 
40 | CS(=N)(=O)Nc1cccc(NC(=O)c2cc(-c3ccccc3)cs2)c1 (stereo not shown) [Example 157, N-(3-(methylsulfonoamidimidamido)phenyl)-4-phenylthiophene-2-carboxamide] | 68.6% |  |  | 205 nM | > 30000 nM
41 | CS(=O)(=O)Nc1cccc(NC(=O)c2cc(-c3ccccc3)c(C(F)(F)F)s2)c1 [Example 99, N-(3-(methylsulfonamido)phenyl)-4-phenyl-5-(trifluoromethyl)thiophene-2-carboxamide] | 35.8% | 716 nM | > 30000 nM |  | 
